The values that follow are results of earlier work, collected in patent US20190350829A1, “AN ANTIMICROBIAL COMPOSITION” (Conopco, Inc., d/b/a UNILEVER, priority 2016, published 2019).

Where two headings read alike, the source gives them in different places.

Broadly, the pKa is the negative logarithm of the acid dissociation constant. On to `CCCCC(C)CCC(=O)O` (centres unmarked) [4-methyl octanoic acid], for which the pKa was 4.89. Further, under “listed as methyl caprylic acid”, the pKa is on record as 4.93.
